Like-named read-outs stand apart in the source and are kept apart here. Where a SMILES comes first, the peptide text is derived from it. Bridges are numbered along the chain shown (N, C = ends).
Assays:
[1] = system: E. coli MDR CI 1057; conditions: 37 °C
Procedure: Resistance induction experiments were performed using the previously described method. Briefly, on day one, the overnight culture of wild-type bacteria was diluted with the 2× MH broth supplemented with 1.8% NaCl to reach a final cell concentration of 10^6 CFU/mL.

[2] = system: E. coli ATCC 25922; conditions: BALB/c mice, n = 5, i.p. infection 10^6 CFU with 2.5% mucin; 10 mg/kg i.p. at 1 h and 4 h after infection; 7 days
[3] = system: Escherichia coli ML-35p; conditions: salt-containing MHB, FBS at different concentrations up to 15%
Text: The results were expressed as the median values determined on the basis of at least three independent experiments performed in triplicate.

[4] = system: human red blood cells (hRBCs); assay: Hemolysis, hemoglobin release assay; type: cell-based; conditions: hemoglobin release assay, 2 h incubation, two independent donors
Procedure: Figure 3 Biological activity of the peptides towards human cells. (A) Hemolytic effect on human red blood cells (hRBCs) after 2 h incubation (the hemoglobin release assay). (B) Cytotoxicity towards transformed human embryonic kidney cells (HEK293T) after 16 h incubation (the resazurin assay).
The hemolytic activity of the peptides was tested against the fresh suspension of human red blood cells (hRBC) using the hemoglobin release assay, as described previously. Two experiments were performed with hRBC from blood samples of independent donors. The quantitative data are represented as average means with standard deviations. The cytotoxic effect of the peptides was tested on transformed human embryonic kidney cells (HEK293T) using the resazurin assay. The technique is based on the ability of live cell dehydrogenases to reduce a blue resazurin to pink and fluorescent resorufin. A total of 10^4 cells per well in Dulbecco’s modified Eagle’s medium (DMEM/F12) supplemented with 10% FBS were placed into 96-well plates for 24 h in the CO2-incubator (5% CO2, 37 °C). […] Fluorescence of the formed resorufin was measured with the microplate reader AF2200 (Eppendorf, Germany) using the following channel: λExc = 535 nm, λEm = 595 nm. The fluorescence signal in the wells containing cells cultured without the peptides was assumed to represent 100% cell viability. […]

[5] = 25% human serum in PBS pH 7.4, 37 °C; for a/b (%), ratio of the peptide forms in serum: RP-HPLC, ratio estimated from MALDI-TOF MS, two independent experiments
[6] = RP-HPLC retention time; type: physicochemical; conditions: semi-preparative RP-HPLC, C18 column, linear gradient 5 to 80% (v/v) acetonitrile in water with 0.1% TFA within 50 min
Procedure: Figure 2 Structure analysis of the novel BRICHOS-related peptides HfBRI-25 and HfBRI-28. (A) Characteristics of the obtained peptides. ^1 Mean Kyte–Doolittle hydrophobicity index (GRAVY) was calculated using the Expasy ProtParam tool. The maximum and minimum values of this index are +4.5 and −4.5 for poly-Ile and poly-Arg sequences, respectively. ^2 Percentage of hydrophobic amino acids was calculated using the APD3 database. ^3 Retention times were measured using semi-preparative reversed-phase high-performance liquid chromatography (RP-HPLC) on a C18 column with a linear gradient from 5 to 80% (v/v) acetonitrile in water containing 0.1% trifluoroacetic acid (TFA) within 50 min. ^4 Molecular masses were calculated by considering the presence of four Cys residues forming two disulfide bonds in the case of HfBRI-25. ^5 Molecular masses were determined experimentally using MALDI-TOF mass spectrometry. (B) Spatial structures of HfBRI-25 and HfBRI-28 were modeled using the AlphaFold algorithm (ColabFold server). The top-rated models, according to predicted local distance difference test (pLDDT) scores, were visualized by the PyMOL software. (C) The CD-spectra of the peptides in water or in the presence of 30 mM DPC micelles. (D) The CONTINLL program was used for CD data analysis. […]

Question: What does the source list for `CC[C@H](C)[C@@H]1NC(=O)[C@H](Cc2c[nH]c3ccccc23)NC(=O)[C@H](C(C)C)NC(=O)[C@@H]2CSSC[C@H](NC(=O)[C@H](CCCNC(=N)N)NC(=O)[C@H](CCCNC(=N)N)NC(=O)[C@H](C(C)C)NC(=O)[C@H](CCCNC(=N)N)NC(=O)[C@H](CCCNC(=N)N)NC(=O)CNC(=O)[C@H](CC(N)=O)NC(=O)[C@H](C(C)C)NC(=O)[C@H](CO)NC1=O)C(=O)N[C@@H](Cc1c[nH]c3ccccc13)C(=O)NCC(=O)N[C@@H](CO)C(=O)NCC(=O)N[C@H](C(=O)O)CSSC[C@H](NC(=O)CNC(=O)[C@H](CCCNC(=N)N)NC(=O)[C@@H]1CCCN1C(=O)[C@@H](N)CO)C(=O)N[C@@H](Cc1ccccc1)C(=O)N2` [HfBRI-25] (H-SPRGCFCVWISVNGRRVRRCWGSGC-OH; disulfide 5-25, 7-20; N-terminus and C-terminus assumed)?
Answer: Change of MIC value after resistance selection ([1]; 21 passages (days) in the presence of the agent, MHB + 0.9% NaCl): two-fold; Initial MIC value before resistance selection ([1]; Mueller–Hinton broth supplemented with 0.9% NaCl): 1 µM; Survival / therapeutic efficacy [2]: 100%; MIC in the presence of FBS at different concentrations [3]: 1 µM; Hemolytic effect on human red blood cells [4]: absence of hemolytic and cytotoxic properties; Part of the peptide converted into 23-residue form b ([5]; after 1 h of incubation): More than half; Two active forms (a/b) remained intact in serum ([5]; after 24 h, RP-HPLC peak area, mean of two independent experiments): more than 80%; a/b (%), ratio of the peptide forms in serum ([5]; time 1 h): 39%; a/b (%), ratio of the peptide forms in serum ([5]; time 3 h): 6%; a/b (%), ratio of the peptide forms in serum ([5]; time 24 h): 0%; RP-HPLC Retention Time [6]: 27.5 min

Reference: publication PMC10745061 (Marine Drugs, 2023)
